Data from ChEMBL document CHEMBL3046208, “Natural and synthetic podolactones with potential use as natural herbicide models” (2000).
Calls of active or inactive are those of the source. The calls are words filed in the database; no cut-off is given here.

How the values were obtained:
Hordeum vulgare [1] = test: Inhibition of germination of Hordeum vulgare (barley) at 0.1 mM after 5 days relative to untreated control; format: functional; details: 120 h
Lactuca sativa [2] = test: Stimulation of shoot length of Lactuca sativa cv. Roman (lettuce) at 0.1 mM after 5 days relative to untreated control; format: functional
Hordeum vulgare [3] = test: Stimulation of shoot length of Hordeum vulgare (barley) at 0.1 mM after 5 days relative to untreated control; format: functional
Solanum lycopersicum [4] = test: Stimulation of germination of Solanum lycopersicum (tomato) at 0.1 mM after 5 days relative to untreated control; format: functional
Lactuca sativa [5] = test: Inhibition of shoot length of Lactuca sativa cv. Roman (lettuce) at 0.1 mM after 5 days relative to untreated control; format: functional; details: 120 h
Solanum lycopersicum [6] = test: Inhibition of root length of Solanum lycopersicum (tomato) at 0.1 mM after 5 days relative to untreated control; format: functional; details: 120 h
Lactuca sativa [7] = test: Stimulation of root length of Lactuca sativa cv. Roman (lettuce) at 0.1 mM after 5 days relative to untreated control; format: functional
Hordeum vulgare [8] = test: Inhibition of shoot length of Hordeum vulgare (barley) at 0.1 mM after 5 days relative to untreated control; format: functional
Lactuca sativa [9] = test: Inhibition of germination of Lactuca sativa cv. Roman (lettuce) at 0.1 mM after 5 days relative to untreated control; format: functional
Allium cepa [10] = test: Inhibition of shoot length of Allium cepa (onion) at 0.1 mM after 5 days relative to untreated control; format: functional; details: 120 h
Lactuca sativa [11] = test: Inhibition of shoot length of Lactuca sativa cv. Nigra (lettuce) at 0.1 mM after 5 days relative to untreated control; format: functional; details: 120 h
Allium cepa [12] = test: Inhibition of root length of Allium cepa (onion) at 0.1 mM after 5 days relative to untreated control; format: functional; details: 120 h
Lepidium sativum [13] = test: Inhibition of shoot length of Lepidium sativum at 0.1 mM after 5 days relative to untreated control; format: functional; details: 120 h
Lactuca sativa [14] = test: Stimulation of shoot length of Lactuca sativa cv. Nigra (lettuce) at 0.1 mM after 5 days relative to untreated control; format: functional
Triticum aestivum [15] = test: Inhibition of root length of Triticum aestivum (wheat) at 0.1 mM after 5 days relative to untreated control; format: functional; details: 120 h
Solanum lycopersicum [16] = test: Inhibition of root length of Solanum lycopersicum (tomato) at 10 uM after 5 days relative to untreated control; format: functional, organism-based
Hordeum vulgare [17] = test: Stimulation of root length of Hordeum vulgare (barley) at 0.1 mM after 5 days relative to untreated control; format: functional
Lactuca sativa [18] = test: Inhibition of root length of Lactuca sativa cv. Roman (lettuce) at 0.1 mM after 5 days relative to untreated control; format: functional; details: 120 h
Triticum aestivum [19] = test: Stimulation of root length of Triticum aestivum (wheat) at 0.1 mM after 5 days relative to untreated control; format: functional
Lepidium sativum [20] = test: Inhibition of root length of Lepidium sativum at 10 uM after 5 days relative to untreated control; format: functional, organism-based
Lactuca sativa [21] = test: Stimulation of germination of Lactuca sativa cv. Nigra (lettuce) at 0.1 mM after 5 days relative to untreated control; format: functional
Hordeum vulgare [22] = test: Inhibition of root length of Hordeum vulgare (barley) at 0.1 mM after 5 days relative to untreated control; format: functional; details: 120 h
Lepidium sativum [23] = test: Inhibition of shoot length of Lepidium sativum at 10 uM after 5 days relative to untreated control; format: functional, organism-based
Lactuca sativa [24] = test: Inhibition of germination of Lactuca sativa cv. Nigra (lettuce) at 0.1 mM after 5 days relative to untreated control; format: functional
Solanum lycopersicum [25] = test: Stimulation of root length of Solanum lycopersicum (tomato) at 0.1 mM after 5 days relative to untreated control; format: functional
Allium cepa [26] = test: Stimulation of germination of Allium cepa (onion) at 0.1 mM after 5 days relative to untreated control; format: functional
Allium cepa [27] = test: Stimulation of shoot length of Allium cepa (onion) at 0.1 mM after 5 days relative to untreated control; format: functional
Lepidium sativum [28] = test: Stimulation of root length of Lepidium sativum at 0.1 mM after 5 days relative to untreated control; format: functional
Hordeum vulgare [29] = test: Stimulation of germination of Hordeum vulgare (barley) at 0.1 mM after 5 days relative to untreated control; format: functional
Triticum aestivum [30] = test: Inhibition of germination of Triticum aestivum (wheat) at 0.1 mM after 5 days relative to untreated control; format: functional
Solanum lycopersicum [31] = test: Inhibition of shoot length of Solanum lycopersicum (tomato) at 10 uM after 5 days relative to untreated control; format: functional, organism-based
Lepidium sativum [32] = test: Inhibition of germination of Lepidium sativum at 0.1 mM after 5 days relative to untreated control; format: functional
Solanum lycopersicum [33] = test: Inhibition of germination of Solanum lycopersicum (tomato) at 10 uM after 5 days relative to untreated control; format: functional, organism-based
Lepidium sativum [34] = test: Inhibition of germination of Lepidium sativum at 10 uM after 5 days relative to untreated control; format: functional, organism-based
Lactuca sativa [35] = test: Stimulation of root length of Lactuca sativa cv. Nigra (lettuce) at 0.1 mM after 5 days relative to untreated control; format: functional
Solanum lycopersicum [36] = test: Inhibition of germination of Solanum lycopersicum (tomato) at 0.1 mM after 5 days relative to untreated control; format: functional
Lepidium sativum [37] = test: Stimulation of germination of Lepidium sativum at 0.1 mM after 5 days relative to untreated control; format: functional
Triticum aestivum [38] = test: Stimulation of shoot length of Triticum aestivum (wheat) at 0.1 mM after 5 days relative to untreated control; format: functional
Lactuca sativa [39] = test: Inhibition of root length of Lactuca sativa cv. Nigra (lettuce) at 0.1 mM after 5 days relative to untreated control; format: functional; details: 120 h
Allium cepa [40] = test: Inhibition of germination of Allium cepa (onion) at 0.1 mM after 5 days relative to untreated control; format: functional; details: 120 h
Triticum aestivum [41] = test: Inhibition of shoot length of Triticum aestivum (wheat) at 0.1 mM after 5 days relative to untreated control; format: functional
Triticum aestivum [42] = test: Stimulation of germination of Triticum aestivum (wheat) at 0.1 mM after 5 days relative to untreated control; format: functional
Lactuca sativa [43] = test: Stimulation of germination of Lactuca sativa cv. Roman (lettuce) at 0.1 mM after 5 days relative to untreated control; format: functional
Lepidium sativum [44] = test: Inhibition of root length of Lepidium sativum at 0.1 mM after 5 days relative to untreated control; format: functional; details: 120 h
Allium cepa [45] = test: Stimulation of root length of Allium cepa (onion) at 0.1 mM after 5 days relative to untreated control; format: functional
Lepidium sativum [46] = test: Stimulation of shoot length of Lepidium sativum at 0.1 mM after 5 days relative to untreated control; format: functional
Solanum lycopersicum [47] = test: Inhibition of shoot length of Solanum lycopersicum (tomato) at 0.1 mM after 5 days relative to untreated control; format: functional; details: 120 h
Solanum lycopersicum [48] = test: Stimulation of shoot length of Solanum lycopersicum (tomato) at 0.1 mM after 5 days relative to untreated control; format: functional
Solanum lycopersicum [49] = test: Stimulation of root length of Solanum lycopersicum (tomato) at 10 nM after 5 days relative to untreated control; format: functional
Allium cepa [50] = test: Inhibition of germination of Allium cepa (onion) at 1 uM after 5 days relative to untreated control; format: functional; details: 120 h

## C[C@@]12CCC[C@]3(C)C4=CC(=O)OCC4=C[C@@H](OC1=O)[C@@H]23
Hordeum vulgare [1]
  inhibition at 100 µM: 20%
Lactuca sativa [2]
  Activity: >40%
Hordeum vulgare [3]
  Activity: >40%
Solanum lycopersicum [4]
  Activity: >40%
Lactuca sativa [5]
  inhibition at 100 µM: > 40%
Solanum lycopersicum [6]
  inhibition at 100 µM: > 40%
Lactuca sativa [7]
  Activity: >40%
Hordeum vulgare [8]; 120 h
  inhibition at 100 µM: > 40%
Lactuca sativa [9]; 120 h
  inhibition at 100 µM: 20%
Allium cepa [10]
  inhibition at 100 µM: > 40%
Lactuca sativa [11]
  inhibition at 100 µM: > 40%
Allium cepa [12]
  inhibition at 100 µM: > 40%
Lepidium sativum [13]
  inhibition at 100 µM: > 40%
Lactuca sativa [14]
  Activity: >40%
Triticum aestivum [15]
  inhibition at 100 µM: 20%
Solanum lycopersicum [16]
  inhibition: Active
Hordeum vulgare [17]
  Activity: >40%
Lactuca sativa [18]
  inhibition at 100 µM: > 40%
Triticum aestivum [19]
  Activity: 20%
Lepidium sativum [20]
  inhibition: Active
Lactuca sativa [21]
  Activity: inactive
Hordeum vulgare [22]
  inhibition at 100 µM: > 40%
Lepidium sativum [23]
  inhibition: Active
Lactuca sativa [24]
  inhibition: inactive
Solanum lycopersicum [25]
  Activity: >40%
Allium cepa [26]
  Activity: 20%
Allium cepa [27]
  Activity: >40%
Lepidium sativum [28]
  Activity: >40%
Hordeum vulgare [29]
  Activity: 20%
Triticum aestivum [30]
  inhibition: inactive
Solanum lycopersicum [31]
  inhibition: Active
Lepidium sativum [32]; 120 h
  inhibition at 100 µM: > 40%
Solanum lycopersicum [33]
  inhibition: Active
Lepidium sativum [34]
  inhibition: Active
Lactuca sativa [35]
  Activity: >40%
Solanum lycopersicum [36]; 120 h
  inhibition at 100 µM: > 40%
Lepidium sativum [37]
  Activity: >40%
Triticum aestivum [38]
  Activity: <20%
Lactuca sativa [39]
  inhibition at 100 µM: > 40%
Allium cepa [40]
  inhibition at 100 µM: 20%
Triticum aestivum [41]; 120 h
  inhibition at 100 µM: < 20%
Triticum aestivum [42]
  Activity: inactive
Lactuca sativa [43]
  Activity: 20%
Lepidium sativum [44]
  inhibition at 100 µM: > 40%
Allium cepa [45]
  Activity: >40%
Lepidium sativum [46]
  Activity: >40%
Solanum lycopersicum [47]
  inhibition at 100 µM: > 40%
Solanum lycopersicum [48]
  Activity: >40%

## COC(=O)[C@@]1(C)CCC[C@@]2(C)[C@H]1CC[C@H]1COC(=O)C[C@@H]12
Hordeum vulgare [1]
  inhibition at 100 µM: > 40%
Lactuca sativa [2]
  Activity: 20%
Hordeum vulgare [3]
  Activity: inactive
Solanum lycopersicum [4]
  Activity: inactive
Lactuca sativa [5]
  inhibition at 100 µM: 20%
Solanum lycopersicum [6]
  inhibition at 100 µM: > 40%
Lactuca sativa [7]
  Activity: <20%
Hordeum vulgare [8]
  inhibition: inactive
Solanum lycopersicum [49]
  Activity: 60%
Lactuca sativa [9]
  inhibition: inactive
Allium cepa [10]
  inhibition at 100 µM: 20%
Lactuca sativa [11]
  inhibition at 100 µM: 20%
Allium cepa [12]
  inhibition at 100 µM: < 20%
Lepidium sativum [13]
  inhibition at 100 µM: 20%
Lactuca sativa [14]
  Activity: 20%
Triticum aestivum [15]
  inhibition at 100 µM: < 20%
Hordeum vulgare [17]
  Activity: >40%
Lactuca sativa [18]
  inhibition at 100 µM: < 20%
Allium cepa [50]
  inhibition at 1 µM: -46%
Triticum aestivum [19]
  Activity: <20%
Lactuca sativa [21]
  Activity: 20%
Hordeum vulgare [22]
  inhibition at 100 µM: > 40%
Lactuca sativa [24]; 120 h
  inhibition at 100 µM: 20%
Solanum lycopersicum [25]
  Activity: >40%
Allium cepa [26]
  Activity: 20%
Allium cepa [27]
  Activity: 20%
Lepidium sativum [28]
  Activity: <20%
Hordeum vulgare [29]
  Activity: >40%
Triticum aestivum [30]
  inhibition: inactive
Lepidium sativum [32]
  inhibition: inactive
Lactuca sativa [35]
  Activity: <20%
Solanum lycopersicum [36]
  inhibition: inactive
Lepidium sativum [37]
  Activity: inactive
Triticum aestivum [38]
  Activity: inactive
Lactuca sativa [39]
  inhibition at 100 µM: < 20%
Allium cepa [40]
  inhibition at 100 µM: 20%
Triticum aestivum [41]
  inhibition: inactive
Triticum aestivum [42]
  Activity: inactive
Lactuca sativa [43]
  Activity: inactive
Lepidium sativum [44]
  inhibition at 100 µM: < 20%
Allium cepa [45]
  Activity: <20%
Lepidium sativum [46]
  Activity: 20%
Solanum lycopersicum [47]
  inhibition at 100 µM: 20%
Solanum lycopersicum [48]
  Activity: 20%
